Measurements: patent US5466675A, “Immunological activity of rhamnolipids” (priority 1992, dated 1995)

How the values were obtained:
blood count in mouse = settings: in vivo
Source text: Activity of Di-rhamnolipid on Blood Count in Mouse
Blood count after application of di-rhamnolipid

[1] = test system: Dopamine D2A (human recombinant); assay: [3H] spiperone dopamine D2A receptor inhibition; assay type: binding; settings: 100 uM
seborhoic dermatitis = assay: clinical treatment of seborhoic dermatitis; assay type: in vivo, human; settings: one patient
Method: (§1) 17 patients, 11 men and 6 women, were treated with rhamnolipid (II). Among these, 12 patients were suffering from Psoriasis, 2 from Neurodermitis, 1 from Lichen ruber planus, 1 from Serborhoic dermatitis and one from Dermatitis circumscripta unilocularis eczematoides.

[2] = test system: Dermatitis circumscripta unilocularis; assay: clinical treatment of dermatitis circumscripta unilocularis; assay type: in vivo, human; settings: one patient
Method: as §1

CHO cells [3] = assay type: cell-based
Method: After 16h incubation of CHO cells with rhamnolipid, the number of micronuclei inside certain binuclear cells increased up to 4.

Pseudomonas aeruginosa = assay: minimum inhibitory concentration, Pseudomonas aeruginosa; assay type: cell-based; settings: in tested medium
Source text: The Minimum inhibitory concentration (MIC) of Rhamnolipid II for Candida albicans, Escherichia coli, Staphylococcus aureus and Pseudomonas aeruginosa was >0.5% in tested medium.

rat platelet rich plasma = assay: collagen induced platelet aggregation; assay type: cell-based; settings: 0.1 mg/ml
Method: Collagen induced platelet aggregation in rat platelet rich plasma was not affected by rhamnolipid (II) at 0.1 mg/ml.

Lichen ruber planus = assay: clinical treatment of lichen ruber planus; assay type: in vivo, human; settings: one patient
Method: as §1

lipoxygenase = assay: enzyme inhibition, lipoxygenase; assay type: biochemical
Method: (§2) Rhamnolipid (II) was tested in vitro against a wide array of enzymes.
(§3) The following enzymes were inhibited at the various rhamnolipid concentrations indicated:
(§4) All enzyme assays were done spectrophotometrically by computer linked automatic microplate reader (Labsystem Multiskan) and Diode Array spectrophotometer (Perkin Elmer).

HIV I, strain IIIB = assay: effect on viruses, HIV I strain IIIB; assay type: cell-based; settings: Human immunodeficiency virus 1, IIIB; read-out: maximal protection
Method: (§5) Tests were performed according to D. A. Vanden Berghe et al., Inst. Pasteur 84,101 (1986). Rhamnolipid (II) was toxic for VERO cells in concentrations ≥200 ug/ml, and cytotoxic on MT4 cells in concentrations >169.40 ug/ml.

[4] = test system: A431 human epidermal cells; settings: in particular in the presence of PMA
beta-galactosidase = assay: enzyme inhibition, beta-galactosidase; assay type: biochemical
Method: as §2, §3, §4

[5] = test system: oxazolone-induced delayed type hypersensitivity; assay: immunostimulation (cellular): oxazolone-induced delayed type hypersensitivity; assay type: in vivo, mouse; settings: for Swelling (R -L) / ear thickness, Left Ear (No Oxa.) / ear thickness, Right Ear (24 hrs Oxa.): X ± SEM
Method: The test substance was administered i.p to groups of 5 mice, 1 hour before application (sensitization) of oxazolone (0.1 ml of 5% solution) to the pre-shaven abdominal surface. Seven days later, 25 μl of a 2% solution of oxazolone was applied (challenge) to the right ear, with vehicle being applied to the left ear. After 24 hours, each mouse was sacrificed and ear thickness measured with a Dyer Model micrometer gauge. Greater than 30 percent enhancement is considered immunostimulant activity.

polio I virus = assay type: cell-based; settings: concentrations ≤100 ug/ml
carboxypeptidase A = assay: enzyme inhibition, carboxypeptidase A; assay type: biochemical
Method: as §2, §3, §4

CHO cells [6] = test system: CHO cells
[7] = biological target: Dopamine D1 (human recombinant) (Homo sapiens, UniProt P21728); assay: [3H] SCH23390 dopamine D1 receptor inhibition; assay type: binding; settings: 0.5% DMSO
Chain of Dopamine D1 (human recombinant) (P21728 whole entry): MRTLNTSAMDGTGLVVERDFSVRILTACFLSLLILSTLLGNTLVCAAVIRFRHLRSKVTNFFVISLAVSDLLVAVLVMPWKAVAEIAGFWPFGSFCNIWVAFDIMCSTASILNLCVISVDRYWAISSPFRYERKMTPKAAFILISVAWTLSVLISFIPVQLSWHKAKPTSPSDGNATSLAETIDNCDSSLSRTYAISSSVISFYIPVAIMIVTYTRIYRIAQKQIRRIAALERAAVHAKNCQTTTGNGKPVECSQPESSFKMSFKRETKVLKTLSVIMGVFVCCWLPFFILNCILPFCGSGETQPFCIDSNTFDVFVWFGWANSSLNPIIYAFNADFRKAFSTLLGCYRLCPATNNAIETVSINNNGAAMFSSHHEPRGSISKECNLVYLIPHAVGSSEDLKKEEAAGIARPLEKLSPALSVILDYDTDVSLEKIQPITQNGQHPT

coxsackie B2 virus = assay: effect on viruses, coxsackie B2; assay type: cell-based; settings: concentrations ≤100 ug/ml
Method: as §5

alpha-glucosidase = assay: enzyme inhibition, alpha-glucosidase; assay type: biochemical
Method: as §2, §4

Psoriasis = settings: 1% rhamnolipid ointment; Belgium patent No. 1,005,704; cited from earlier work
in vitro = settings: human, mt4 cells
Candida albicans = assay: immunorestoration: immunosuppression with cyclophosphamide and infection with Candida albicans; assay type: in vivo, mouse (ICR, female); settings: for Survivor No.: n = 10
Source text: […] One day after the last immunosuppressant dose, the mice were challenged with a suspension of C. albicans sufficient to result in 90 to 100 percent mortality within 10 days in the vehicle treated control group. A greater than 30 percent survival for any drug treated group is considered significant, and possibly a result of immunorestorant activity.

[8] = IP 0.1 × 3 mg/kg + cyclophosphamide
[9] = IP 1 × 3 mg/kg + cyclophosphamide
[10] = IP 10 × 3 mg/kg + cyclophosphamide
[11] = IP 100 × 3 mg/kg + cyclophosphamide

## CCCCCCCC(CC(=O)O)OC(=O)CC(CCCCCCC)O[C@@H]1O[C@@H](C)[C@H](O)[C@@H](O)[C@H]1O[C@@H]1O[C@@H](C)[C@H](O)[C@@H](O)[C@H]1O (stereo partly drawn) [Rhamnolipid (II), (alpha-L-rhamnopyranosyl-(1,2)alpha-L-rhamnopyranosyl)-3-hydroxydecanoyl-3-hydroxydecanoic acid]
Blood count in mouse
  Lymphocyts: 53.40 +/- 11.14
  lymphocytes: 56.50 +/- 12.02
  nRBC: 0
Blood count in mouse; iv, 7.5 mg/kg
  change in lymphocytes: decreased
  change in neutrophils: significantly increased
[1]
  inhibition of the dopamine D2A receptor: 53%
Seborhoic dermatitis
  cure: completely cured
[2]
  cure: completely cured
CHO cells [3]
  micronuclei numbers: increased compared to the parallel control specimens
  number of micronuclei inside certain binuclear cells: up to 4
Pseudomonas aeruginosa
  Minimum inhibitory concentration (MIC): > 0.5%
Rat platelet rich plasma
  collagen induced platelet aggregation: not affected
Lichen ruber planus
  cure: completely cured
lipoxygenase
  concentration at which the enzyme was inhibited: 10 µg/mL
HIV I, strain IIIB
  Emax: 9%
[4]
  A431 cell growth: suppressed A431 cell growth
beta-galactosidase
  concentration at which the enzyme was inhibited: 100 µg/mL
[5]; IP 0.1 × 5 mg/kg
  Swelling Inc. %: -11%
  Swelling (R -L): 15.4 +/- 1.7 × 0.01 mm
  ear thickness, Left Ear (No Oxa.): 19.4 +/- 1.1 × 0.01 mm
  ear thickness, Right Ear (24 hrs Oxa.): 34.8 +/- 1.8 × 0.01 mm
[5]; IP 1 × 5 mg/kg
  Swelling Inc. %: 9%
  Swelling (R -L): 19.0 +/- 2.2 × 0.01 mm
  ear thickness, Left Ear (No Oxa.): 20.6 +/- 0.9 × 0.01 mm
  ear thickness, Right Ear (24 hrs Oxa.): 39.6 +/- 2.2 × 0.01 mm
[5]; IP 10 × 5 mg/kg
  Swelling Inc. %: 14%
  Swelling (R -L): 19.8 +/- 1.9 × 0.01 mm
  ear thickness, Left Ear (No Oxa.): 20.2 +/- 0.4 × 0.01 mm
  ear thickness, Right Ear (24 hrs Oxa.): 40.0 +/- 1.6 × 0.01 mm
[5]; IP 100 × 5 mg/kg
  Swelling Inc. %: -37%
  died on Day 2: 1/5
  Swelling (R -L): 11.0 +/- 1.1 × 0.01 mm
  ear thickness, Left Ear (No Oxa.): 21.3 +/- 1.0 × 0.01 mm
  ear thickness, Right Ear (24 hrs Oxa.): 32.3 +/- 2.0 × 0.01 mm
Polio I virus
  antiviral activity: no activity
Carboxypeptidase A
  concentration at which the enzyme was inhibited: 1 mg/mL
CHO cells [6]
  defect of spiralization: not observed
  overall structural chromosome damages and number of cells with 2 to 4 aberrations: increased several fold
[7]; 0.01 μM
  inhibition at 0.01 µM: 8%
[7]; 1 μM
  inhibition at 1 µM: 8%
[7]; 100 μM
  inhibition at 100 µM: 101%
Coxsackie B2 virus
  antiviral activity: no activity
alpha-glucosidase
  effect on enzyme: no effect
Psoriasis
  activity in treatment of Psoriasis: strong activity
In vitro
  MCC: > 169 µg/mL
Candida albicans; [8]
  Death, days post-inoculum 0-1: 2 #/10 Mice
  Death, days post-inoculum 2-3: 1 #/10 Mice
  Death, days post-inoculum 4-6: 1 #/10 Mice
  Death, days post-inoculum 7-9: 2 #/10 Mice
  Response Inc. %: 20%
  Survivor No.: 4
Candida albicans; [9]
  Death, days post-inoculum 0-1: 2 #/10 Mice
  Death, days post-inoculum 2-3: 2 #/10 Mice
  Death, days post-inoculum 4-6: 1 #/10 Mice
  Death, days post-inoculum 7-9: 1 #/10 Mice
  Response Inc. %: 20%
  Survivor No.: 4
Candida albicans; [10]
  Death, days post-inoculum 0-1: 2 #/10 Mice
  Death, days post-inoculum 2-3: 1 #/10 Mice
  Death, days post-inoculum 4-6: 1 #/10 Mice
  Death, days post-inoculum 7-9: 0 #/10 Mice
  Response Inc. %: 40%
  Survivor No.: 6
Candida albicans; [11]
  Death, days post-inoculum 0-1: 1 #/10 Mice
  Death, days post-inoculum 2-3: 1 #/10 Mice
  Death, days post-inoculum 4-6: 1 #/10 Mice
  Death, days post-inoculum 7-9: 0 #/10 Mice
  Response Inc. %: 50%
  Survivor No.: 7
Candida albicans; summary, no dose stated
  in vivo immunorestoration activity: very strong
